Data: patent US10266526B2, “Substituted 1,2,3-triazoles as SMYD inhibitors for treating cancer” (EPIZYME, INC., priority 2014, dated 2019)

biological target: SMYD2 (Homo sapiens (Human), UniProt Q9NRG4); assay: SMYD2 biochemical assay (SMYD2 enzyme assay on peptide substrate, 3H-SAM Flashplate); conditions: read-out: SMYD2 Biochem IC50; IC50 values are an average of n = 1 to n = 50
Sequence (Q9NRG4 whole entry): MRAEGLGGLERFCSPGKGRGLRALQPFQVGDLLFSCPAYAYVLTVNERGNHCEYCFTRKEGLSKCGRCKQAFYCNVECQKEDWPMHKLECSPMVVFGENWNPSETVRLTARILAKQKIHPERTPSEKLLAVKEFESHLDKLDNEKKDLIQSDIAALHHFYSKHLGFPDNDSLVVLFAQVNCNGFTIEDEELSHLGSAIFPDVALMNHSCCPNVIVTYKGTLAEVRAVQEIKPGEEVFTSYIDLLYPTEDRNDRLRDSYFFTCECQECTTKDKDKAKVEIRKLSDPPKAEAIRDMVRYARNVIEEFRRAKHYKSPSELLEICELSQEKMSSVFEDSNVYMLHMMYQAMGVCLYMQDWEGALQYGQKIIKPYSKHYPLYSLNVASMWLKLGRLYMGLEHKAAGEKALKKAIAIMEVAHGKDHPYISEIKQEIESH

Q: `COc1c(OCCO)cccc1C(C)N1CC(NC(=O)c2cc(C3CC3)cnn2)C1` (centres unmarked) [compound 650, 5-cyclopropyl-N-(1-{1-[3-(2-hydroxyethoxy)-2-methoxyphenyl]ethyl}azetidin-3-yl)pyridazine-3-carboxamide] was tested. Which IC50 did it give?
A: Its IC50 is 312 nM.

Q: With `O=C(NC1CN(Cc2ccccc2)C1)c1cc(C2CC2)cnn1` [compound 651, N-(1-benzylazetidin-3-yl)-5-cyclopropylpyridazine-3-carboxamide] as the compound, how does the IC50 read?
A: Its IC50 is 541 nM.

Q: For `CC(c1cccc(OCCO)c1Cl)N1CC(NC(=O)c2cc(C3CC3)cnn2)C1` (centres unmarked) [compound 652, N-(1-{1-[2-chloro-3-(2-hydroxyethoxy)phenyl]ethyl}azetidin-3-yl)-5-cyclopropylpyridazine-3-carboxamide], which IC50 is on record?
A: Its IC50 is 41.6 nM.

Q: How did the IC50 turn out when `O=C(NC1CNC1)c1cn(C2CC2)nn1` [compound 657, N-(azetidin-3-yl)-1-cyclopropyl-1H-1,2,3-triazole-4-carboxamide] was run?
A: The IC50 was 10400 nM.

Q: For `CN1CC(NC(=O)c2cn(C3CC3)nn2)C1` [compound 659, 1-cyclopropyl-N-(1-methylazetidin-3-yl)-1H-1,2,3-triazole-4-carboxamide], which IC50 is on record?
A: Its IC50 is 2840 nM.

Q: With `CCCN1CC(NC(=O)c2cn(C3CC3)nn2)C1` [compound 660, 1-cyclopropyl-N-(1-propylazetidin-3-yl)-1H-1,2,3-triazole-4-carboxamide] as the compound, how does the IC50 read?
A: The IC50 was 1170 nM.

Q: Which IC50 does the source give for `CC(C)N1CC(NC(=O)c2cn(C3CC3)nn2)C1` [compound 662, 1-cyclopropyl-N-[1-(propan-2-yl)azetidin-3-yl]-1H-1,2,3-triazole-4-carboxamide] here?
A: Its IC50 is 846 nM.

Q: With `CC(C)N1CC(NC(=O)c2cn(C3CC3)nn2)C1` [compound 663, 1-cyclopropyl-N-[1-(propan-2-yl)azetidin-3-yl]-1H-1,2,3-triazole-4-carboxamide] as the compound, how does the IC50 read?
A: The IC50 was 585 nM.

Q: Which IC50 does the source give for `O=C(NC1CN(CC2CC2)C1)c1cn(C2CC2)nn1` [compound 665, 1-cyclopropyl-N-[1-(cyclopropylmethyl)azetidin-3-yl]-1H-1,2,3-triazole-4-carboxamide] here?
A: The IC50 was 2000 nM.

Q: How did the IC50 turn out when `O=C(NC1CN(CC2COC2)C1)c1cn(C2CC2)nn1` [compound 666, 1-cyclopropyl-N-[1-(oxetan-3-ylmethyl)azetidin-3-yl]-1H-1,2,3-triazole-4-carboxamide] was run?
A: Its IC50 is 6060 nM.

Q: For `COCCN1CC(NC(=O)c2cn(C3CC3)nn2)C1` [compound 667, 1-cyclopropyl-N-[1-(2-methoxyethyl)azetidin-3-yl]-1H-1,2,3-triazole-4-carboxamide], which IC50 is on record?
A: Its IC50 is 2460 nM.

Q: With `CC(C)CN1CC(NC(=O)c2cn(C3CC3)nn2)C1` [compound 668, 1-cyclopropyl-N-[1-(2-methylpropyl)azetidin-3-yl]-1H-1,2,3-triazole-4-carboxamide] as the compound, how does the IC50 read?
A: The IC50 was 2750 nM.

Q: For `O=C(NC1CN(CC2CCC2)C1)c1cn(C2CC2)nn1` [compound 669, N-[1-(cyclobutylmethyl)azetidin-3-yl]-1-cyclopropyl-1H-1,2,3-triazole-4-carboxamide], which IC50 is on record?
A: The IC50 was 1620 nM.

Q: How did the IC50 turn out when `O=C(NC1CN(CCO)C1)c1cn(C2CC2)nn1` [compound 670, 1-cyclopropyl-N-[1-(2-hydroxyethyl)azetidin-3-yl]-1H-1,2,3-triazole-4-carboxamide] was run?
A: Its IC50 is 4530 nM.

Q: How did the IC50 turn out when `O=C(NC1CN(Cc2ccccc2)C1)c1cn(C2CC2)nn1` [compound 671, N-(1-benzylazetidin-3-yl)-1-cyclopropyl-1H-1,2,3-triazole-4-carboxamide] was run?
A: Its IC50 is 4210 nM.

Q: How did the IC50 turn out when `O=C(NC1CN(Cc2ccccc2)C1)c1cn(C2CC2)nn1` [compound 672, N-(1-benzylazetidin-3-yl)-1-cyclopropyl-1H-1,2,3-triazole-4-carboxamide] was run?
A: Its IC50 is 1550 nM.

Q: `O=C(NC1CN(CCc2ccccc2)C1)c1cn(C2CC2)nn1` [compound 673, 1-cyclopropyl-N-[1-(2-phenylethyl)azetidin-3-yl]-1H-1,2,3-triazole-4-carboxamide] was tested. Which IC50 did it give?
A: The IC50 was 1550 nM.

Q: With `O=C(NC1CN(C(CO)c2ccccc2)C1)c1cn(C2CC2)nn1` (centres unmarked) [compound 674, 1-cyclopropyl-N-[1-(2-hydroxy-1-phenylethyl)azetidin-3-yl]-1H-1,2,3-triazole-4-carboxamide] as the compound, how does the IC50 read?
A: Its IC50 is 4270 nM.

Q: How did the IC50 turn out when `CC(c1ccccc1F)N1CC(NC(=O)c2cn(C3CC3)nn2)C1` (centres unmarked) [compound 678, 1-cyclopropyl-N-{1-[1-(2-fluorophenyl)ethyl]azetidin-3-yl}-1H-1,2,3-triazole-4-carboxamide] was run?
A: The IC50 was 907 nM.

Q: With `COc1cccc(C(C)N2CC(NC(=O)c3cn(C4CC4)nn3)C2)c1` (centres unmarked) [compound 679, 1-cyclopropyl-N-{1-[1-(3-methoxyphenyl)ethyl]azetidin-3-yl}-1H-1,2,3-triazole-4-carboxamide] as the compound, how does the IC50 read?
A: The IC50 was 1450 nM.

Q: Which IC50 does the source give for `CC(c1ccc(C(F)(F)F)cc1)N1CC(NC(=O)c2cn(C3CC3)nn2)C1` (centres unmarked) [compound 680, 1-cyclopropyl-N-(1-{1-[4-(trifluoromethyl)phenyl]ethyl}azetidin-3-yl)-1H-1,2,3-triazole-4-carboxamide] here?
A: Its IC50 is greater than 50000 nM.

Q: How did the IC50 turn out when `CCCCOc1ccc(C(C)N2CC(NC(=O)c3cn(C4CC4)nn3)C2)cc1` (centres unmarked) [compound 681, N-{1-[1-(4-butoxyphenyl)ethyl]azetidin-3-yl}-1-cyclopropyl-1H-1,2,3-triazole-4-carboxamide] was run?
A: The IC50 was 1290 nM.

Q: Which IC50 does the source give for `CC(c1ccccc1OC(F)(F)F)N1CC(NC(=O)c2cn(C3CC3)nn2)C1` (centres unmarked) [compound 684, 1-cyclopropyl-N-(1-{1-[2-(trifluoromethoxy)phenyl]ethyl}azetidin-3-yl)-1H-1,2,3-triazole-4-carboxamide] here?
A: Its IC50 is 2130 nM.

Q: `COCCCN1CC(NC(=O)c2cn(C3CC3)nn2)C1` [compound 686, 1-cyclopropyl-N-[1-(3-methoxypropyl)azetidin-3-yl]-1H-1,2,3-triazole-4-carboxamide] was tested. Which IC50 did it give?
A: The IC50 was 3760 nM.

Q: With `COc1ccc(CC(C)N2CC(NC(=O)c3cn(C4CC4)nn3)C2)cc1OC` (centres unmarked) [compound 688, 1-cyclopropyl-N-{1-[1-(3,4-dimethoxyphenyl)propan-2-yl]azetidin-3-yl}-1H-1,2,3-triazole-4-carboxamide] as the compound, how does the IC50 read?
A: The IC50 was 5100 nM.

Q: `COc1cc(F)ccc1C(C)N1CC(NC(=O)c2cn(C3CC3)nn2)C1` (centres unmarked) [compound 689, 1-cyclopropyl-N-{1-[1-(4-fluoro-2-methoxyphenyl)ethyl]azetidin-3-yl}-1H-1,2,3-triazole-4-carboxamide] was tested. Which IC50 did it give?
A: The IC50 was 1890 nM.

Q: How did the IC50 turn out when `COc1ccc(C(F)(F)F)cc1C(C)N1CC(NC(=O)c2cn(C3CC3)nn2)C1` (centres unmarked) [compound 690, 1-cyclopropyl-N-(1-{1-[2-methoxy-5-(trifluoromethyl)phenyl]ethyl}azetidin-3-yl)-1H-1,2,3-triazole-4-carboxamide] was run?
A: The IC50 was 7990 nM.

Q: Which IC50 does the source give for `CC(c1ccc2c(c1)OCO2)N1CC(NC(=O)c2cn(C3CC3)nn2)C1` (centres unmarked) [compound 691, N-{1-[1-(2H-1,3-benzodioxol-5-yl)ethyl]azetidin-3-yl}-1-cyclopropyl-1H-1,2,3-triazole-4-carboxamide] here?
A: The IC50 was 807 nM.

Q: For `CC(c1ccc(OCc2ccccc2)cc1)N1CC(NC(=O)c2cn(C3CC3)nn2)C1` (centres unmarked) [compound 692, N-(1-{1-[4-(benzyloxy)phenyl]ethyl}azetidin-3-yl)-1-cyclopropyl-1H-1,2,3-triazole-4-carboxamide], which IC50 is on record?
A: Its IC50 is 172 nM.

Q: `CC(c1ccc(OCc2ccccc2)cc1)N1CC(NC(=O)c2cn(C3CC3)nn2)C1` (centres unmarked) [compound 693, N-(1-{1-[4-(benzyloxy)phenyl]ethyl}azetidin-3-yl)-1-cyclopropyl-1H-1,2,3-triazole-4-carboxamide] was tested. Which IC50 did it give?
A: The IC50 was 176 nM.

Q: `CCC(c1ccc(F)cc1)N1CC(NC(=O)c2cn(C3CC3)nn2)C1` (centres unmarked) [compound 694, 1-cyclopropyl-N-{1-[1-(4-fluorophenyl)propyl]azetidin-3-yl}-1H-1,2,3-triazole-4-carboxamide] was tested. Which IC50 did it give?
A: The IC50 was 787 nM.

Q: For `COc1ccc(C(C)N2CC(NC(=O)c3cn(C4CC4)nn3)C2)cc1OC` (centres unmarked) [compound 698, 1-cyclopropyl-N-{1-[1-(3,4-dimethoxyphenyl)ethyl]azetidin-3-yl}-1H-1,2,3-triazole-4-carboxamide], which IC50 is on record?
A: The IC50 was 3690 nM.

Q: `CCC(c1ccc(C(F)(F)F)cc1)N1CC(NC(=O)c2cn(C3CC3)nn2)C1` (centres unmarked) [compound 700, 1-cyclopropyl-N-(1-{1-[4-(trifluoromethyl)phenyl]propyl}azetidin-3-yl)-1H-1,2,3-triazole-4-carboxamide] was tested. Which IC50 did it give?
A: The IC50 was 2670 nM.

Q: For `COCCOc1cccc(CN2CC(NC(=O)c3cn(C4CC4)nn3)C2)c1` [compound 701, 1-cyclopropyl-N-(1-{[3-(2-methoxyethoxy)phenyl]methyl}azetidin-3-yl)-1H-1,2,3-triazole-4-carboxamide], which IC50 is on record?
A: Its IC50 is 8030 nM.

Q: With `COCCOc1cccc(C(C)N2CC(NC(=O)c3cn(C4CC4)nn3)C2)c1` (centres unmarked) [compound 702, 1-cyclopropyl-N-(1-{1-[3-(2-methoxyethoxy)phenyl]ethyl}azetidin-3-yl)-1H-1,2,3-triazole-4-carboxamide] as the compound, how does the IC50 read?
A: The IC50 was 3580 nM.

Q: How did the IC50 turn out when `CC(C)N1CC(NC(=O)c2cn(CCO)nn2)C1` [compound 703, 1-(2-hydroxyethyl)-N-[1-(propan-2-yl)azetidin-3-yl]-1H-1,2,3-triazole-4-carboxamide] was run?
A: The IC50 was greater than 50000 nM.

Q: With `CC(c1cccc(OCCO)c1)N1CC(NC(=O)c2cn(C3CC3)nn2)C1` (centres unmarked) [compound 704, 1-cyclopropyl-N-(1-{1-[3-(2-hydroxyethoxy)phenyl]ethyl}azetidin-3-yl)-1H-1,2,3-triazole-4-carboxamide] as the compound, how does the IC50 read?
A: The IC50 was 640 nM.

Q: For `CNCCOc1cccc(C(C)N2CC(NC(=O)c3cn(C4CC4)nn3)C2)c1` (centres unmarked) [compound 705, 1-cyclopropyl-N-[1-(1-{3-[2-(methylamino)ethoxy]phenyl}ethyl)azetidin-3-yl]-1H-1,2,3-triazole-4-carboxamide], which IC50 is on record?
A: Its IC50 is 2040 nM.

Q: For `O=C(NC1CN(CCCO)C1)c1cn(C2CC2)nn1` [compound 707, 1-cyclopropyl-N-[1-(3-hydroxypropyl)azetidin-3-yl]-1H-1,2,3-triazole-4-carboxamide], which IC50 is on record?
A: Its IC50 is 1910 nM.

Q: With `CN(C)CCCN1CC(NC(=O)c2cn(C3CC3)nn2)C1` [compound 708, 1-cyclopropyl-N-{1-[3-(dimethylamino)propyl]azetidin-3-yl}-1H-1,2,3-triazole-4-carboxamide] as the compound, how does the IC50 read?
A: Its IC50 is greater than 50000 nM.

Q: With `C[C@@H](c1ccccc1)N1CC(NC(=O)c2cn(C3CC3)nn2)C1` [compound 709, 1-cyclopropyl-N-{1-[(1S)-1-phenylethyl]azetidin-3-yl}-1H-1,2,3-triazole-4-carboxamide] as the compound, how does the IC50 read?
A: Its IC50 is 377 nM.
